pIC50: −log10 of the molar value.
Assays:
[1] = biological target: T1, alpha-glucosidase (Saccharomyces cerevisiae) (Saccharomyces cerevisiae, UniProt P53341); assay: biochemical
T1 construct: purchased Sigma-Aldrich, Cape Town, South Africa
Excerpt: (§1) EGCG (epigallocatechin gallate), Trolox (6-hydroxyl-2,5,7,8-tetramethylchroman-2-carboxylic acid), and other reagents such as TPTZ (2,4,6-tri[2-pyridyl]-s-triazine, iron (III) chloride hexahydrate, ABTS (2,2-azino-bis (3-ethylbenzo thiazoline-6-sulfonic acid) diammonium salt), AAPH (2,2-Azobis (2-methylpropionamidine) dihydrochloride), fluorescein sodium salt, potassium peroxodisulfate, copper sulfate, hydrogen peroxide, perchloric acid, alpha-glucosidase (Saccharomyces cerevisiae), alpha-amylase ([…]), and 3,5,di-nitro salicylic acid (DNS), sodium carbonate (Na2CO3), 4-nitro-phenyl-α-D-glucopyranoside (pNPG), di-sodium hydrogen phosphate, and sodium dihydrogen phosphate purchased from Sigma-Aldrich, Cape Town, South Africa. The organic solvents used in this study were supplied by Merck, Cape Town, South Africa. The NMR spectra were carried out on an Avance 400 MHz spectrometer (Bruker, Rheinstetten, Germany) using deuterated chloroform. Preparative HPLC was utilized for the purification of compounds using HPLC-grade methanol and distilled water.
Briefly, 20 μL of 5 mM substrate ([…]) was added to each well and left to incubate for 20 min at 37 °C. The reacting mixture was stopped after incubation by adding 0.1 M sodium carbonate (50 μL). The release of p-nitrophenol of the reacting mixture relating to the activity of the enzyme was read at a wavelength of 405 nm using a multiplate reader (Multiskan, Thermo Scientific).
All the measurements were repeated three times, and the IC50 was calculated using GraphPad Prism 5 version 5.01 (Graph pad software, Inc., La Jolla, CA, USA) statistical software. The data presented are means ± SD obtained from 96-well-plate readers for all in vitro experiments.

[2] = Oxygen radical absorbance capacity (ORAC) assay; conditions: Trolox equivalent; mean ± SD of triplicate
Excerpt: The method of Cao and Prior (1998) was employed to measure oxygen radical absorbance capacity (ORAC) and as reported in our previous study. The method measures the scavenging potential of compounds against the decomposition of peroxyl radical of 2,2-azobis (2-amino-propane) dihydrochloride (AAPH) as peroxyradical (ORAC ROO^•). The antioxidant capacity of a compound is a measure of the fading fluorescence of a probe (fluorescein) using the area under the curve (AUC) plot in relation to a control blank. The florescence of the probe was programmed to be measured at every two minutes for 2 h after the addition of AAPH at the excitation wavelength and emission set at 485 and 530 nm, respectively. The ORAC results were estimated following a regression equation (Y = a + bX + Cx^2) between Trolox concentration (Y in μM) and the net area under the fluorescence decay curve (X). ORAC values were expressed as μM Trolox equivalent (TE)/mg of test sample.

[3] = Trolox equivalent absorbance capacity (TEAC) assay; conditions: mean ± SD of triplicate
Description: The TEAC assay was evaluated following the method of Pellegrini et al. (1999). The working solution containing 88 µL of K2S2O8 (140 mM) and 5 mL ABTS (7 mM) was kept for at least 16 h in the dark at 25 °C. The working solution was then diluted after 16 h with ethanol until the absorbance read approximately 2.0 (±0.1). The extract, purified compounds, or standard (25 µL) was mixed with 300 µL working solution and allowed to incubate in the dark for 30 min at room temperature. Trolox was used as the standard using a concentration range between 0 and 500 µM. The absorbance of the reaction was read at a wavelength of 734 nm using a multiplate reader.

[4] = Ferric-ion reducing antioxidant power (FRAP) assay; conditions: ascorbic acid equivalent; mean ± SD of triplicate
Description: The FRAP assay was assessed according to the method of Benzie and Strain (1996). FRAP reagent containing the mixture of acetate buffer (300 mM, pH 3.6), tripyridyl triazine (TPTZ) (10 mM in 40 mM HCl), and 20 mM FeCl3.6H2O in ratio 10:1:1 (v/v/v) was used. Extract, compounds, or standard (10 µL) was added to 300 µL FRAP reagent, incubated for 30 min in the dark at room temperature. The reacting mixture was read at a wavelength of 593 nm in a multiplate reader. Ascorbic acid was used as standard at varying concentrations of 0 to 1000 µM. The result was presented as a mean of independent triplicate experiments and expressed as µM ascorbic acid equivalents per milligram dry weight (µM AAE/g) of the test samples.

[5] = biological target: T2, alpha-amylase (procaine pancreas) (Sus scrofa, UniProt P00690); assay: Alpha-amylase inhibitory activity (starch/DNS); assay type: biochemical; conditions: mean ± SD, n = 3; samples 100–31.2 μg/mL; NA: not active within the evaluated concentrations
T2 construct: purchased Sigma-Aldrich, Cape Town, South Africa
T2 sequence (P00690 16-511): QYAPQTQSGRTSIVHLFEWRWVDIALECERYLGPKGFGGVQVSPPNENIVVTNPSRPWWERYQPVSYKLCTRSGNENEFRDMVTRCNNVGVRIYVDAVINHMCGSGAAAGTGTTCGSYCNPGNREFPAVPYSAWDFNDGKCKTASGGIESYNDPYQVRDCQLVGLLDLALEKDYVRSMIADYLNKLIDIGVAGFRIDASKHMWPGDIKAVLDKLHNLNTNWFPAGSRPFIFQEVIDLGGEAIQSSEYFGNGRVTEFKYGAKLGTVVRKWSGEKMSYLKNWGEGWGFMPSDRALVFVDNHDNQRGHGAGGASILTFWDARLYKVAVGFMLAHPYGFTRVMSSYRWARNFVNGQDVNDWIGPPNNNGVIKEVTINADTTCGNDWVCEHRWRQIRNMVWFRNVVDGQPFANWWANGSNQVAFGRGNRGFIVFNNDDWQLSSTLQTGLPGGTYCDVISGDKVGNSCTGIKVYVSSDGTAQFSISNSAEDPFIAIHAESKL
Excerpt: as §1
The mixture was allowed to incubate for 20 min at 37 °C before the addition of 1% soluble starch (10 μL) and further incubated for another 30 min. A color reagent DNS (100 μL) was added and boiled at 95 °C for 15 min. The change in color was read at a wavelength of […] using a multiplate reader.
The data presented are means ± SD obtained from 96-well-plate readers for all in vitro experiments.

[6] = biological target: rat liver diacylglycerol acyltransferase 1 (DGAT1); design: method as in PMID 28034282; conditions: read-out: IC50 against rat liver DGAT1; cited from earlier work
[7] = test system: intracellular de novo triglyceride synthesis; design: method as in PMID 28034282; conditions: without affecting cell viability; cited from earlier work

T1 sequence (P53341 whole entry): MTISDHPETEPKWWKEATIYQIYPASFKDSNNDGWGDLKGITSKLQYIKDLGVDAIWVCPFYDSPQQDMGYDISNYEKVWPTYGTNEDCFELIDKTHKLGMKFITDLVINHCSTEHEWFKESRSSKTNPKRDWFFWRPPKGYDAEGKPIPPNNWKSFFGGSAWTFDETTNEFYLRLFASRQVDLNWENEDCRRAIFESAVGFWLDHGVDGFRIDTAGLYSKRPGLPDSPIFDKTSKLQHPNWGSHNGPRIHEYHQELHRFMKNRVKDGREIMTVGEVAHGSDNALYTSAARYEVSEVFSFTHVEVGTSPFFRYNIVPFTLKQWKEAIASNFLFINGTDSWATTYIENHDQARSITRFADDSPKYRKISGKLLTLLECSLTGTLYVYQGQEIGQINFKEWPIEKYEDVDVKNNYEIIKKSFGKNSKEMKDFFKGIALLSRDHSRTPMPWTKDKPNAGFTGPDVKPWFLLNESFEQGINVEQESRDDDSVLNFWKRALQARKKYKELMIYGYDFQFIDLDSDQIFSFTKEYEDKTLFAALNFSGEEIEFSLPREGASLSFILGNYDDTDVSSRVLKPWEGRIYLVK

Structure (SMILES) | pIC50 [1] | pIC50 [5] | ORAC [2] [mM TE/g] | TEAC [3] [mM TE/g] | FRAP [4] [mM AAE/g] | pIC50 [6] | deactivation of intracellular de novo triglyceride synthesis [7]
COc1c(C(C)C)cc2c(c1O)[C@@]1(C(=O)O)CCCC(C)(C)[C@@H]1CC2 [12-methoxycarnosic acid] | 3.97 | 4.33 | 20.25 ± 0.01 | 0.34 ± 0.003 | 0.51 ± 0.003 | – | –
O=C(O[C@@H]1Cc2c(O)cc(O)cc2O[C@@H]1c1cc(O)c(O)c(O)c1)c1cc(O)c(O)c(O)c1 [EGCG, epigallocatechin gallate, reference compound] | – | – | 3.98 ± 0.00 | 4.15 ± 0.02 | 7.53 ± 0.005 | – | –
CC(C)c1cc2c(c(O)c1O)[C@@]13CCCC(C)(C)[C@@H]1[C@H](OC3=O)[C@H]2O [Rosmanol, rosmanol] | 4.32 | 3.93 | 25.79 ± 0.01 | 2.06 ± 0.003 | 1.52 ± 0.002 | – | –

Second part, led by results:

pIC50 [1] | pIC50 [5] | Structure (SMILES) | ORAC [2] [mM TE/g] | TEAC [3] [mM TE/g] | FRAP [4] [mM AAE/g] | pIC50 [6] | deactivation of intracellular de novo triglyceride synthesis [7]
4.02 | – | COc1ccc(-c2cc(=O)c3c(O)cc(OC)cc3o2)cc1 [4,7-dimethylapigenin ether, 4,7-dimethylapigenin] | 6.47 ± 0.01 | 3.19 ± 0.003 | 0.61 ± 0.006 | – | –
3.80 | 4.22 | CC(C)c1cc2c(c(O)c1O)[C@@]13CCCC(C)(C)[C@@H]1C[C@@H]2OC3=O [Carnosol, carnosol] | 23.96 ± 0.01 | 0.33 ± 0.002 | 3.92 ± 0.002 | 4.20 | 67.5–90.6%
